Assay [1] has as its system F4/80+ mononuclear cells in the kidneys. The experiment in a line: CLP sepsis-associated AKI model: kidney monocytes and their phenotype (immunofluorescence), day 3 post-treatment. To be noted: for F4/80+ cell numbers in the kidneys: 50 mg/kg/day i.p. The assay is classed as in vivo, Balb/c mice. From the text: (§1) Balb/c mice (20-24 weeks old, male and female, Charles River Labs) were used. Mice were subjected to cecal ligation and puncture surgery (CLP) in accordance with methods reported by Rittirsch et al. (Rittirsch D, Huber-Lang M S, Flierd M A, Ward P A: Immunodesign of experimental sepsis by cecal ligation and puncture. Nature protocols 2009, 4(1):31-36). Specifically, Sepsis was induced by ligating 1 cm length of the cecum from the apex and two punctures with a 25-Gauge needle. Animals in the sham group had only laparotomy without any cecal punctures. Post-surgery treatment included 40 mL/kg Ringer's solution after surgery, and ceftriaxone (25 mg/kg), metronidazole (12.5 mg/kg), and buprenorphine (0.05 mg/kg), every 12 hours administered intraperitoneally (i.p.) for 3 days. Septic animals were randomly divided into four groups to receive a seven-day UPHD186 (50 mg/kg/day, i.p.) or vehicle (20% Cyclodextrin-2% DMSO in PBS, i.p.) treatment, starting from 48 hours or 96 hours post-CLP. To determine treatment efficacy, time-serial blood samples (approx. 10 μL) were collected through animals' saphenous vein on the days before/after the treatment session. All mice were followed for survival and sacrificed at the 3rd day post-treatment or the endpoint day 14 to collect kidneys and blood samples.
(§2) The left kidney was flushed with 10 mL ice-cold PBS, 10 mL 10% formalin through the left ventricle immediately after euthanasia, and the kidney was collected. For immunofluorescence staining, half of the kidney was fixed in 10% formalin for 2 h on ice, incubated in 30% (vol/vol) sucrose at 4° C. overnight, snap frozen in OCT (Sakura FineTek), and cut into 7-μm sections. Sections were treated with heated citrate (Antigen Unmasking Solution, Vector Laboratories), blocked in 10% (vol/vol) normal goat serum (Vector Laboratories) in 0.3M glycine-PBST for 1 h RT, incubated with primary antibodies at 4° C. overnight, and then corresponding secondary antibodies (Jackson ImmunoResearch) in PBS containing 10% of the blocking solution for 1 h RT. Stained sections were mounted in mounting Medium with DAPI (Vectashield H-1000, Vector Laboratories), and stored at −20° C. until observed under confocal microscopy (Fluoview 1000, Olympus). Three washes with PBST were performed between each step. The primary antibodies were: goat anti-ICAM (R&D Systems), rabbit anti-Col1 (Novus Biologicals), rabbit anti-fibronectin (Abcam), rabbit anti-vimentin (Abcam), rat anti-F4/80 (Abcam), rabbit anti-iNOS (Abcam), and phalloidin (Thermo Fisher Scientific) was used for staining of the brush-boarder. For immunohistochemistry analysis, the infused kidney was fixed in 10% formalin at 4° C. overnight, embedded in paraffin, and cut into 5-μm sections. Hematoxylin & eosin and Masson's trichrome stain were performed. Semiquantitative renal histology injury scoring was assessed by an investigator blinded to group assignment and the percentage of fibrosis per area was quantified using ImageJ (https://imagej.nih.gov/ij/; National Institutes of Health).
Kidney samples collected at day 3 post-treatment were examined for presence numbers of monocytes in the kidney and their phenotypes (monocytes: F4/80^+, M1: F4/80^+iNOS^+, M2: F4/80^+MR^+).

For assay [2], the system named is hemin treated kidney organoids. The experiment in a line: Hemin-induced injury of kidney organoids: collagen hybridizing peptide (CHP) staining. To be noted: 25 μM hemin two days, then 10 days with 1 μM, 3 μM, and 9 μM compound. Type of assay: cell-based, human. The procedure: A simple bioreactor-based method for growing renal organoids for long periods of time is provided, resulting in tissue with a high degree of maturation. Hemin-induced acute kidney injury produced by the oxidation of the heme of hemoglobin and myoglobin, causing oxidative stress and inflammation. […] These observations indicate that the kidney organoid model of AKI provides a valuable new platform to validate novel compounds in the setting of human AKI.
Organoids were prepared essentially as described in Przepiorski A, Sander V, Tran T, Hollywood J A, Sorrenson B, Shih J H, Wolvetang E J, McMahon A P, Holm™ and Davidson A J. A Simple Bioreactor-Based Method to Generate Kidney Organoids from Pluripotent Stem Cells. Stem Cell Reports. 2018; 11:470-484. As shown in FIG. 8 (A), induced pluripotent stem cells (iPSCs) were cultured for three 3 days in with 8 μM of the Wnt agonist CHIR-99021 (CHIR, e.g., 6-[[2-[[4-(2,4-dichlorophenyl)-5-(5-methyl-1H-imidazol-2-yl)-2-pyrimidinyl]amino]ethyl] amino]-3-pyridinecarbonitrile) in BPEL (BSA poly(vinyl alcohol) essential lipids)), and were then cultured for an additional 11 days in DMEM with Knockout™ Serum Replacement (KOSR). At 14 days, DMEM F12 medium containing 25 μM Hemin (Sigma, H9039) is applied for two days, followed by 10 days with 1 μM, 3 μM, and 9 μM UPHD186 in DMEM with 10% KOSR. UPHD25 was evaluated in the same manner. […]

The subject of assay [3] is IL6. The experiment in a line: CLP sepsis-associated AKI model: circulating cytokine IL6 (ELISA). Type of assay: in vivo, Balb/c mice. To be noted: early and delayed treatment regimens.
Text: as §1, with “samples. […]” for “samples.”
On the technique in general: In an ELISA, binding on a coated surface is turned into a signal by an enzyme label.

Assay [4] can be described thus: CLP sepsis-associated AKI model: circulating creatinine. To be noted: early and delayed treatment regimens. Type of assay: in vivo, Balb/c mice.
Text: as §1, with “samples. […]” for “samples.”

The test system of assay [5] is renal fibrosis and histology injury. The experiment in a line: CLP sepsis-associated AKI model: renal histology (Masson's trichrome, hematoxylin & eosin), day 14. Type of assay: in vivo, Balb/c mice.
Text: as §1
as §2, with “The primary antibodies were: goat anti-ICAM (R&D Systems), rabbit anti-Col1 (Novus Biologicals), rabbit anti-fibronectin (Abcam), rabbit anti-vimentin (Abcam), rat anti-F4/80 (Abcam), rabbit anti-iNOS (Abcam), and phalloidin (Thermo Fisher Scientific) was used for staining of the brush-boarder. For immunohistochemistry analysis, the infused kidney was fixed in 10% formalin at 4° C. overnight, embedded in paraffin, and cut into 5-μm sections. Hematoxylin & eosin and Masson's trichrome stain were performed.” left out, “Health). […]” for “Health).”

Assay [6] deals with renal mRNA of inflammation, kidney injury, matrix remodeling, cell cycle, proliferation and fibrosis genes. The experiment in a line: CLP sepsis-associated AKI model: renal mRNA expression (quantitative PCR). The assay is classed as in vivo, Balb/c mice.
Text: as §1
Total tissue RNA was isolated using TRIzol™ reagent (Life Technologies), DNase kit (Invitrogen), and converted into complementary DNA with High-Capacity cDNA Reverse Transcription Kits (Applied Biosystems). Quantitative polymerase chain reaction was performed on a Mx3000PTM system (Agilent Technologies) using primers (Table 1) and SYBR® Select Master Mix (2×) (Applied Biosystems). The expression of each target gene was assayed in duplicate and presented as fold change normalized by that of the endogenous control gene, gapdh expression.
Kidney samples were examined at mRNA levels for genes controlling inflammation (nfκb, ccl20, traf1, traf2, icam), kidney injury (kim1), and matrix remodeling markers (lox, loxl1). Septic animals had higher levels of gene expression compared to sham controls (FIG. 4). […] (FIG. 3D).
Kidney samples on day 14 (following CLP) were examined for mRNA levels for treatment effects on cell cycle regulation (cdkn1a), proliferation (ki67), and pro-fibrosis genes (plod2, fsp1, col1a1). Septic animals had higher levels of fsp1 and col1a1 expressions compared to sham controls (FIG. 7). Early treatment with UPHD186 further increased fsp1 (fold-increase, 3.3±1.3 vs. corresponding CLP+vehicle controls 2.2±1.1, P<0.05), whereas delayed treatment promoted ki67 and inhibited col1a1 expression (fold-increase, ki67: 1.6±0.7 vs. corresponding controls 1.0±0.5, P<0.01; col1a1, 2.2±0.9 vs. 3.7±2.4, P<0.05) (FIG. 5C). Thus, pro-fibrotic gene expression was increased in the recovery phase and early treatment further aggravated these changes; whereas delayed treatment promoted proliferation and attenuated fibrosis.

Assay [7] has as its system IGFBP7. The experiment in a line: CLP sepsis-associated AKI model: renal IGFBP7 expression, day 14. Type of assay: in vivo, Balb/c mice.
Text: as §1
The left kidney was flushed with 10 mL ice-cold PBS, 10 mL 10% formalin through the left ventricle immediately after euthanasia, and the kidney was collected. For immunofluorescence staining, half of the kidney was fixed in 10% formalin for 2 h on ice, incubated in 30% (vol/vol) sucrose at 4° C. overnight, snap frozen in OCT (Sakura FineTek), and cut into 7-μm sections. […] Semiquantitative renal histology injury scoring was assessed by an investigator blinded to group assignment and the percentage of fibrosis per area was quantified using ImageJ (https://imagej.nih.gov/ij/; National Institutes of Health).
Renal expression/location of the kidney stress marker insulin-like growth factor-binding protein 7 (IGFBP7) was measured at Day-14 kidneys. […]

The subject of assay [8] is septic mice (cecal ligation and puncture). The experiment in a line: CLP sepsis-associated AKI model: sepsis survival to day 14. To be noted: 50 mg/kg/day i.p. 7 days. Type of assay: in vivo, Balb/c mice.
Text: as §1, with “To determine treatment efficacy, time-serial blood samples (approx. 10 μL) were collected through animals' saphenous vein on the days before/after the treatment session. All mice were followed for survival and sacrificed at the 3rd day post-treatment or the endpoint day 14 to collect kidneys and blood samples.” left out
Graph and statistical analyses were performed using GraphPad Prism 8 (GraphPad Software). […] Tukey's test was used to determine significance of differences among multiple groups and t test between two groups; survival rates were analyzed using log-rank Mantel-Cox test. […]

Consider `O=C(CCCSc1ccccc1)Nc1ccccc1O` [UPHD186, N-(2-hydroxyphenyl)-4-(phenylsulfanyl)butanamide], for which the “iNOS expression intensities (M1 marker)” value turned out to be 1.4±0.3 in assay [1] (delayed treatment (96 h post-CLP), CLP vehicle 3.1±1.4) and 2.7±0.3 in assay [1] (early treatment (48 h post-CLP), CLP vehicle 1.2±0.7). For the same compound, the “F4/80+ cell numbers in the kidneys” value in assay [1] (delayed treatment (from 96 h post-CLP), CLP vehicle 52.4±32.9) is listed as 40.6±24.7 cells/field; in assay [1] (early treatment (from 48 h post-CLP), CLP vehicle 41.2±26.1) it was 15.7±7.7 cells/field. Further, the “MR expression (M2 marker), treatment effect” value in assay [1] (early and delayed treatment groups) is recorded as “no treatment effects were observed”. The “collagen (CHP staining), fibrosis” value in assay [2] is “reduced”. In addition, in assay [3], the “circulating cytokine IL6, treatment effect” value is on record as “neither creatinine (FIG. 5B) nor cytokine IL6 (FIG. 6) were affected”. In addition, the “circulating creatinine, treatment effect” value in assay [4] was “neither creatinine (FIG. 5B) nor cytokine IL6 (FIG. 6) were affected”. Besides, the histology injury score in assay [5] (delayed treatment, vehicle 2.1±1.0, P=0.13) was found to be 1.4±1.0; in assay [5] (early treatment, CLP vehicle 1.7±0.9) it was 2.6±1.3. Also, the collagen volume fraction in assay [5] (delayed treatment, vehicle 26.2±7.6, P=0.08) is recorded as 21.2±4.8%; in assay [5] (early treatment, CLP vehicle 28.4±4.3), 27.6±4.3%. Moreover, the “inflammation, kidney injury and matrix remodeling marker mRNA (nfκb, ccl20, traf1, traf2, icam, kim1, lox, loxl1), effect” value in assay [6] (delayed treatment, day 3 post-treatment, compared to CLP controls) is “no effect on any marker expressions”. For the same compound, the “ki67 renal mRNA” value in assay [6] (delayed treatment, day 14 after CLP, controls 1.0±0.5) amounted to 1.6±0.7 fold-increase. In addition, in assay [6] (delayed treatment, day 14 after CLP, controls 3.7±2.4), the “col1a1 renal mRNA” value was found to be 2.2±0.9 fold-increase. The “loxl1 renal mRNA” value in assay [6] (early treatment, day 3 post-treatment, CLP 10.5±5.7) is 5.0±2.3 fold-increase. In assay [6] (early treatment, day 3 post-treatment, CLP 25.3±4.1), the “icam1 renal mRNA” value is 9.1±2.3 fold-increase. Moreover, in assay [6] (early treatment, day 3 post-treatment, CLP 32.5±6.9), the “traf2 renal mRNA” value is on record as 12.2±3.0 fold-increase. The “traf1 renal mRNA” value in assay [6] (early treatment, day 3 post-treatment, CLP 51.5±9.1) came out at 17.1±3.6 fold-increase. The “cdkn1a renal mRNA, effect” value in assay [6] (early treatment, day 14 (FIG. 5C)) was “increased cdkn1a”. For the same compound, in assay [6] (early treatment, day 14 after CLP, CLP+vehicle 2.2±1.1), the “fsp1 renal mRNA” value was found to be 3.3±1.3 fold-increase. Also, the “overall IGFBP7 renal expression, effect” value in assay [7] (delayed treatment, day 14) is “no such effect”. Also, in assay [7] (early and delayed treatment regimens, day 14 (data not shown)), the “secretory pattern of IGFBP7, effect” value is on record as “neither treatment regimens changed the secretory pattern of IGFBP7”. The “overall IGFBP7 renal expression” value in assay [7] (early treatment, day 14, CLP 396.9±109.0) is listed as 674.1±190.5. Also, the “survival rate by day 14” value was found to be 79% in assay [8] (delayed treatment (96 h), vehicle 39%, P<0.01) and 69% in assay [8] (early treatment (48 h), vehicle 54%, P=0.32).
In the case of `COC(=O)CCCSc1ccccc1` [UPHD25, methyl 4-(phenylsulfanyl)butanoate], in assay [2], the “collagen (CHP staining), fibrosis” value was “reduction of collagen”.

The values above are taken from patent US12478594B2, “Methods of treatment of kidney injury associated with infection or trauma” (University of Pittsburgh—Of the Commonwealth System of …, priority 2019, dated 2025).
